Experimental data taken from patent US20230233425A1, “USE OF VOLATILE COMPOSITIONS TO LIMIT OR ELIMINATE THE PERCEPTION OF MALODOR” (Firmenich SA, priority 2017, published 2023).
Where “and” joins values, the source holds several entries; their conditions need not be identical. Identical values can stand only once. Like-named read-outs stand apart in the source and are kept apart here. Marks after values point to notes of the source that are not given here.

Columns and labels:
Olfr740 = Olfr740 (Mus musculus, UniProt E9PV79); experiment: Indole antagonist dose-response, cAMP HTRF in HEK293T, vs indole EC80; type: cell-based; details: vs indole EC80; for Emax: HEK-293T, read-out: Olfr740 % Inhibition; for IC50: read-out: Olfr740 IC50
Sequence of Olfr740 (E9PV79 entry or part of it): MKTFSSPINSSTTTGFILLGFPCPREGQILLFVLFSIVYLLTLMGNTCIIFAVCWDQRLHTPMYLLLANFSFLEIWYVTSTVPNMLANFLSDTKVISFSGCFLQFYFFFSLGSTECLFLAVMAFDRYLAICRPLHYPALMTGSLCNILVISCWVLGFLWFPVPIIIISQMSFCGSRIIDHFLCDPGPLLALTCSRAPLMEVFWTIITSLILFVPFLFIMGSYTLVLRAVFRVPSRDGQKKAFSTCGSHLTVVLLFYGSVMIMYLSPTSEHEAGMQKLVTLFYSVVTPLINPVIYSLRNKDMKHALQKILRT

Olfr748 = Olfr748 (Mus musculus, UniProt E9Q9Z0); experiment: as above; type: cell-based; details: Table 23
Sequence of Olfr748 (E9Q9Z0 entry or part of it): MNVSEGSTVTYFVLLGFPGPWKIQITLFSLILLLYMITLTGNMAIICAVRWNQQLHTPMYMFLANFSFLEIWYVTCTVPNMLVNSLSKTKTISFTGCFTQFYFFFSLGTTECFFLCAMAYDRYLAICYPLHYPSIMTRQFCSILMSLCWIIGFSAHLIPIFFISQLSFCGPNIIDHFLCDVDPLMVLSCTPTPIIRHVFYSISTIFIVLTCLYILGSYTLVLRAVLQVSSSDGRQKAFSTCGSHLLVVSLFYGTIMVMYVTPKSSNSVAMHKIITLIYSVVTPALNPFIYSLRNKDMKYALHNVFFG

Olfr742 = Olfr742 (Mus musculus, UniProt A2RTP5); experiment: as above; type: cell-based; details: vs indole EC80; for Emax: HEK-293T, read-out: Olfr742 % Inhibition; for IC50: read-out: Olfr742 IC50
Sequence of Olfr742 (A2RTP5 entry or part of it): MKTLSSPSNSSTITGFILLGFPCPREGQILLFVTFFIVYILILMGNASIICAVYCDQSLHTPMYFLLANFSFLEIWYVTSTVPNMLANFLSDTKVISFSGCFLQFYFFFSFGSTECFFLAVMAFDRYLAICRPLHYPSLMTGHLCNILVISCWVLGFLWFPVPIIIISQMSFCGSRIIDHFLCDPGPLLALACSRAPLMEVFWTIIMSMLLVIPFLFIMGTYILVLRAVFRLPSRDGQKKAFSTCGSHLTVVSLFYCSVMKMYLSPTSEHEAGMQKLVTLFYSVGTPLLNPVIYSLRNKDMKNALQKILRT

Olfr741 = Olfr741 (Mus musculus, UniProt L7N1Y5); experiment: as above; type: cell-based
Sequence of Olfr741 (L7N1Y5 entry or part of it): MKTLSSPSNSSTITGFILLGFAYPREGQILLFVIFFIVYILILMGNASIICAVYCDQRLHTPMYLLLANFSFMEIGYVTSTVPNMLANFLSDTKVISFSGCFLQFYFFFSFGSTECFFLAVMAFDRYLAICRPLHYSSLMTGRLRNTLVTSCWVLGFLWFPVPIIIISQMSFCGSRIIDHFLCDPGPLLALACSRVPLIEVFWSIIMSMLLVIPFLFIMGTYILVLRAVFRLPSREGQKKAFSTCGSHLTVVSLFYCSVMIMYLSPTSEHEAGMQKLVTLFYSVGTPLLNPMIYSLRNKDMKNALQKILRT

Olfr738 = Olfr738 (Mus musculus, UniProt L7N1X7); experiment: as above; type: cell-based; details: vs indole EC80; for IC50: read-out: Olfr738 IC50
Sequence of Olfr738 (L7N1X7 entry or part of it): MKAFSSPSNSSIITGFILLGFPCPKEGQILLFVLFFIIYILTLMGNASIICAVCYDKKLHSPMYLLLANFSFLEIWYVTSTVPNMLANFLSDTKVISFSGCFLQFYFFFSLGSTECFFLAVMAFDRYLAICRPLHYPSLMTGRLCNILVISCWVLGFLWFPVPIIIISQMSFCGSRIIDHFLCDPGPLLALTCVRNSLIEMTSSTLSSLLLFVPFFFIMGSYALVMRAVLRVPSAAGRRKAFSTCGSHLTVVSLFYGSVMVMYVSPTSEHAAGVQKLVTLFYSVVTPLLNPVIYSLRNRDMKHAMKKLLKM

Olfr744 = target: T1, Olfr744 (Mus musculus, UniProt Q7TRM0); experiment: as above; type: cell-based; details: Table 23
T1 construct: Flag; Rho tag; expressed in transfected cells
T1 sequence (Q7TRM0 1-323): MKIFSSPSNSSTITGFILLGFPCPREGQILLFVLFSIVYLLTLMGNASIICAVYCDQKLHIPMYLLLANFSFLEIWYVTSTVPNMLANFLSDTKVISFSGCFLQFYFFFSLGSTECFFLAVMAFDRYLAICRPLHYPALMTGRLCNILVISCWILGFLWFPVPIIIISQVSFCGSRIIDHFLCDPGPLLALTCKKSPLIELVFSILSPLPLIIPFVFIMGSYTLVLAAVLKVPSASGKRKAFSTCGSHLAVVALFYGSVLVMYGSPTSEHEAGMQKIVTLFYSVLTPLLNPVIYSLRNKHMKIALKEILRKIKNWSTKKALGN
Method: (§1) Functional dose-response experiments were performed to identify compounds capable of antagonizing indole-sensitive receptors previously identified (U.S. Pat. No. 9,914,760 B2). Using a cell-based assay, mouse receptor Olfr738, Olfr739, Olfr740, Olfr741, 0fr742, Olfr743, Olfr744, Olfr746, Olfr748 and Olfr749 were tested in an HEK293T cell line wherein the endogenous RTP1 gene has been activated and the odorant receptor chaperone was expressed (described in WO2016201153A1). The receptor genes were tagged with a Flag-Rho tag combination. Receptor genes were co-transfected with the canonical olfactory human G-protein alpha subunit Golf gene. Co-expression of the human Golf activates the Gs transduction pathway that leads to an internal cAMP increase upon binding to the appropriate ligand (indole here). Odorant-induced activity was detected by measuring the cAMP increase in the cytosol using an HTRF based kit (CisBio, cAMP dynamic 2 kit, cat. 62AM4PEJ). The receptors were exposed to binary mixtures of increasing concentrations of the test compounds in the presence of a potent activation concentration of indole (EC80) for each receptor. […] All the compounds listed decreased the indole induced activity of at least one receptor.

Olfr743 = Olfr743 (Mus musculus, UniProt L7N1Y2); experiment: as above; type: cell-based; details: Table 23
Sequence of Olfr743 (L7N1Y2 entry or part of it): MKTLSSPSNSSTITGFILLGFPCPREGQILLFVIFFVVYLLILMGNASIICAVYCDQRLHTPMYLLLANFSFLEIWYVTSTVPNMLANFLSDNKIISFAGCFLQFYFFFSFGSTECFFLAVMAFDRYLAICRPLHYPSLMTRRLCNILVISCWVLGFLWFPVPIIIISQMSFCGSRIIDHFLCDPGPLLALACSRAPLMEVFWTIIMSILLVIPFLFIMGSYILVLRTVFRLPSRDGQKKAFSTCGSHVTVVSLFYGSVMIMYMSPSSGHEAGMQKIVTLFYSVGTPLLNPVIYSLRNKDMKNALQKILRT
Method: as §1

Olfr746 = target: T2, Olfr746 (Mus musculus, UniProt E9Q840); experiment: as above; type: cell-based; details: Table 23
T2 construct: Flag; Rho tag; expressed in transfected cells
T2 sequence (E9Q840 1-314): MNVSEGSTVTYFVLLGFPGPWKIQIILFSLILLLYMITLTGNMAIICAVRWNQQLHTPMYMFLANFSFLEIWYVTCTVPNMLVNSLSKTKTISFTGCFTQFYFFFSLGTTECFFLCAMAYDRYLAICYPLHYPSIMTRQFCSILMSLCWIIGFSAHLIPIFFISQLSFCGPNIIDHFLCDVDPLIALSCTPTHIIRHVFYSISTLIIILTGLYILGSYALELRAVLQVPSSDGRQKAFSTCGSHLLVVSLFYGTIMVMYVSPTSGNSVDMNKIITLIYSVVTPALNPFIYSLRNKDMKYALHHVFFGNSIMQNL
Method: as §1

Olfr739 = Olfr739 (Mus musculus, UniProt E9Q1P0); experiment: as above; type: cell-based; details: for IC50: Table 22, first listing (r7-r45)
Sequence of Olfr739 (E9Q1P0 entry or part of it): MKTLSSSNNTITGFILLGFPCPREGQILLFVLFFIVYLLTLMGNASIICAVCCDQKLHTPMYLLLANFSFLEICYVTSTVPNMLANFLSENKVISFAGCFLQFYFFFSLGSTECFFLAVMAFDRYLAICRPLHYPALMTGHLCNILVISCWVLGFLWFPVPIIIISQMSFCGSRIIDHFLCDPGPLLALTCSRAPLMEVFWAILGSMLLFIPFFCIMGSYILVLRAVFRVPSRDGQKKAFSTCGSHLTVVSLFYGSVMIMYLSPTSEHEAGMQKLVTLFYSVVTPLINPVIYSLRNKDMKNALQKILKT
Method: as §1

Olfr749 = target: T3, Olfr749 (Mus musculus, UniProt E9Q438); experiment: as above; type: cell-based; details: Table 23
T3 construct: Flag; Rho tag; expressed in transfected cells
T3 sequence (E9Q438 1-313): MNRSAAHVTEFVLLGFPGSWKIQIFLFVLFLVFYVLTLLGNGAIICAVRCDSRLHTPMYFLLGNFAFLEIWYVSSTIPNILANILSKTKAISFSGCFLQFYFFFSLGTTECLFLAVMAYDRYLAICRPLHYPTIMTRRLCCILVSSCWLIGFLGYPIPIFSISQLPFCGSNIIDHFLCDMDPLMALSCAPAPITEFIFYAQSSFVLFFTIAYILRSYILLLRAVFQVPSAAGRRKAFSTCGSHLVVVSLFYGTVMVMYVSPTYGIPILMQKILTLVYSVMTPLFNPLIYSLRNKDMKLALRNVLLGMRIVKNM
Method: as §1

[1] = test system: butyric acid malodor perception; experiment: Human sensory panel, perceived intensity of butyric acid; type: in vivo; details: Table 20
Method: The pleasantness of the compounds delivered alone (triangles, dashed-line) and in a mixture with butyric acid at isointense concentrations (squares, solid line). Many of these compounds are shown to inhibit the activity of a butyric acid olfactory receptor.
Malodor receptor antagonist systems and compositions were evaluated at a gas phase concentration of 3.4 microg/1 air. The sensory method to evaluate compositions required the use of specially designed air dilution olfactometers to achieve well controlled and stable gas phase concentrations of the compositions and of the malodor to the group of test subjects.
The 30 subjects first evaluated the malodor reconstitution alone and then rated the 3 attributes “Freshness”, “Pleasantness” and “malodor” (the malodor character) on a 0 to 10 scale. The next evaluation was performed 30 seconds later to avoid odor adaptation, the malodor reconstitution was injected together with the test composition in the olfactometer. Ratings for the same descriptors recorded.

[2] = target: T4, OR51E1 olfactory receptor (Homo sapiens, UniProt Q8TCB6); experiment: Butyric acid olfactory receptor antagonist cell-based dose-response vs butyric acid EC80; details: Table 20, spiro analogues; for Emax: read-out: Inhibition (%)
T4 construct: expressed in transfected cells
T4 sequence (Q8TCB6 1-318): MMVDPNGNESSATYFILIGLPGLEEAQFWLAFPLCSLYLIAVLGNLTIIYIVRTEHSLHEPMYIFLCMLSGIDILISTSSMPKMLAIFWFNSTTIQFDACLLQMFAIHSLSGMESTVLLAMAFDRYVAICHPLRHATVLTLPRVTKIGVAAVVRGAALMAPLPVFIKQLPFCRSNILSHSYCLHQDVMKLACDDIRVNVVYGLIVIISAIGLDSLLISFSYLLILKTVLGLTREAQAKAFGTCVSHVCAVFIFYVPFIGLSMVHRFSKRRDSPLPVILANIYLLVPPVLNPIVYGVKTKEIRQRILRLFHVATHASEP

[3] = test system: geonol earthy/moss odor perception; experiment: Human sensory performance of test compounds with and without geonol; type: in vivo; details: for % Earthy/Moss Odor: Test Compound Only
Summary of the method: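 Panelists first learned the earthy/moss quality from a geonol-only reference, then rated pleasantness, earthy/moss intensity and overall intensity of geonol alone, antagonist alone, and geonol mixed with isointense or low-intensity antagonist on a 0-10 linear scale. Samples were presented in glass jars in randomized order with two-minute intervals.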

[4] = test system: OR11A1, or the OR2M3 olfactory receptor; experiment: Geonol olfactory receptor antagonist cell-based screening, inhibitory dose-response vs geonol EC80; parameters: species or system human; details: geonol at EC80; for IC50: read-out: IC50
[5] = test system: geonol malodor (earthy/moss odor) perception; experiment: Sensory evaluation of geonol earthy/moss odor in iso-intense binary mixtures (glass jars); type: in vivo, human; details: iso-intense binary mixture
[6] = test system: 1-octen-3-ol mushroom/earthy/fungal odor perception; experiment: Human sensory performance of test compounds with and without 1-octen-3-ol; type: in vivo; details: Test Compound Only
[7] = test system: geonol receptors Olfr339, Olfr1487, Olfr1A1, OR11A1, Olfr96; experiment: Antagonists of geonol receptors (Example 11); type: cell-based, mouse and human; parameters: Inhibition(%): concentration or dose not given beside the values; details: Table 18
[8] = test system: OR2W1 or the OR1A1 olfactory receptor; experiment: 1-octen-3-ol olfactory receptor antagonist cell-based dose-response vs 1-octen-3-ol EC80
Source text: Each cell line was screened with a volatile compound library for their inhibitory properties and potential 1-octen-3-ol smell inhibition.
Single concentration monitoring of the 1-octen-3-ol induced cell activity in the presence or absence of a test compound allowed for the identification of compounds with a putative suppression or inhibitory effect.

[9] = Table 22, second listing of the same compounds
[10] = Table 22, first listing (r7-r45)
[11] = Low Dilution Test Compound + Geonol (0.1%)
[12] = Medium Dilution Test Compound + Geonol (0.1%)

IC50 (Olfr741; Table 22, first listing) [µM]	Olfr741 % Inhibition (Olfr741; Table 22, first listing) [%]	IC50 (Olfr743) [µM]	Olfr743 % Inhibition (Olfr743) [%]	Compound	IC50 (Olfr748) [µM]	Olfr748 % Inhibition (Olfr748) [%]	IC50 (Olfr741; [9]) [µM]	Olfr741 % Inhibition (Olfr741; [9]) [%]	Olfr738 % Inhibition (Olfr738; Table 22, first listing) [%]	IC50 (Olfr746) [µM]	Olfr746 % Inhibition (Olfr746) [%]	IC50 (Olfr749) [µM]	Olfr749 % Inhibition (Olfr749) [%]	Sensory Performance (%) [1] [%]	% Earthy/Moss Odor [3] [%]	other results
108	59.56	192	38.36	C=C1CC[C@H]2O[C@]2(C)CC[C@@H]2[C@@H]1CC2(C)C	121	9.24	121	9.24	54.69	85.9	13.17	61.3	91.71			Emax (Olfr740; Table 22, first listing): 203%; Emax (Olfr740; [9]): 13.2%; IC50 (Olfr740; [10]): 13.4 µM; Emax (Olfr742; Table 22, first listing): 63%; Emax (Olfr742; [9]): 91.7%; IC50 (Olfr742; [10]): 99.1 µM; IC50 (Olfr738; [10]): 18.1 µM; Olfr738 % Inhibition (Olfr738; [9]): 38.36%; IC50 (Olfr744): 113 µM; Olfr744 % Inhibition (Olfr744): 55.20%; Olfr739 % Inhibition (Olfr739; Table 22, first listing): 102.21%; IC50 (Olfr739): 19.5 µM; Olfr739 % Inhibition (Olfr739; [9]): 55.20%
				CC(=O)OC1C(C)(C)CCCC12C(C)C=CCC2C (centres unmarked)										43		IC50 [2]: 72.3 µM; Emax [2]: 72%
				CC(=O)OC1C(C)(C)CCCC12CC(C)C(C)C2 (centres unmarked)										50		IC50 [2]: 51.4 µM; Emax [2]: 62%
				3-(4-hydroxy-4-methylpentyl)cyclohex-3-ene-1-carbaldehyde; 4-(4-hydroxy-4-methylpentyl)cyclohex-3-ene-1-carbaldehyde	213	48.14	213	48.14	14.67	373	43.95	233	62.05		15.40	% Earthy/Moss Odor Remaining [3, 11]: 85.70%; % Earthy/Moss Odor Remaining [3, 12]: 78.70%; % Inhibition [4]: 60%; IC50 [4]: 217 µM; Olfr740 % Inhibition (Olfr740; Table 22, first listing): 72.15%; IC50 (Olfr740; Table 22, first listing): 185 µM; Olfr740 % Inhibition (Olfr740; [9]): 43.95%; Olfr742 % Inhibition (Olfr742; Table 22, first listing): 41.42%; IC50 (Olfr742; Table 22, first listing): 182 µM; Olfr742 % Inhibition (Olfr742; [9]): 62.05%; IC50 (Olfr738; Table 22, first listing): 166 µM
148	96.86	264	123.10	CC1(C)CCC[C@]2(C)CC(=O)CC[C@@H]12 (racemic) [(+−)-perhydro-5,5,8A-trimethyl-2-trans-naphthalenone]	106	65.60			101.72	308	81.36	41.5	96.98		45.20	% Mushroom/Earthy/Fungal Odor [6]: 30.80%; IC50 [7]: 96.7 µM; Inhibition(%) [7]: 71%; IC50 ([8]; 1-octen-3-ol at EC80): 63.2 µM; % Inhibition ([8]; maximum inhibition normalized to baseline agonist activity): 102.97%; Emax (Olfr740; Table 22, first listing): 127%; IC50 (Olfr740; [10]): 1.96 µM; IC50 (Olfr738; [10]): 2.74 µM; IC50 (Olfr744): 74.7 µM; Olfr744 % Inhibition (Olfr744): 107.89%; Olfr739 % Inhibition (Olfr739; Table 22, first listing): 68.44%; IC50 (Olfr739): 13.9 µM
				CC1=C(C)CC2(CCCC(C)(C)C2=O)C1 [2,3,9,9-tetramethylspiro[4.5]dec-2-en-10-one]										56		

Compound	IC50 (Olfr741; Table 22, first listing) [µM]	Olfr741 % Inhibition (Olfr741; Table 22, first listing) [%]	IC50 (Olfr743) [µM]	Olfr743 % Inhibition (Olfr743) [%]	IC50 (Olfr748) [µM]	Olfr748 % Inhibition (Olfr748) [%]	IC50 (Olfr741; [9]) [µM]	Olfr741 % Inhibition (Olfr741; [9]) [%]	Olfr738 % Inhibition (Olfr738; Table 22, first listing) [%]	IC50 (Olfr746) [µM]	Olfr746 % Inhibition (Olfr746) [%]	IC50 (Olfr749) [µM]	Olfr749 % Inhibition (Olfr749) [%]	Sensory Performance (%) [1] [%]	% Earthy/Moss Odor [3] [%]	other results
1-(3,3-dimethylcyclohexen-1-yl)pent-4-en-1-one; 1-(5,5-dimethylcyclohexen-1-yl)pent-4-en-1-one	131	124.57	210	59.11	81.6	66.47	81.6	66.47	33.49	89.4	94.28	46.2	90.61		34.50	% Earthy/Moss Odor Remaining [3, 11]: 85.80%; % Earthy/Moss Odor Remaining [3, 12]: 72.30%; IC50 [4]: 111 µM and 148 µM; % Remaining in human sensory tests [5]: 58* %; Olfr740 % Inhibition (Olfr740; Table 22, first listing): 179.31%; IC50 (Olfr740; Table 22, first listing): 1.68 µM; Olfr740 % Inhibition (Olfr740; [9]): 94.28%; Olfr742 % Inhibition (Olfr742; Table 22, first listing): 146.91%; IC50 (Olfr742; Table 22, first listing): 4.3 µM; Olfr742 % Inhibition (Olfr742; [9]): 90.61%; IC50 (Olfr738; Table 22, first listing): 6.29 µM; Olfr738 % Inhibition (Olfr738; [9]): 59.11%
